Assay results reported in US20050228041A1, “Protective and therapeutic uses for tocotrienols” (priority 2003, published 2005).

Assays:
[1] = system: 12-lipoxygenase activity in HT4 neurons; experiment: 12(S)-HETE, product of 12-lipoxygenase activity, in glutamate-treated HT4 neurons (HPLC); type: cell-based, mouse; conditions: HT4, glutamate 12 h
Procedure: Neurons isolated from 12-LOX deficient mice are resistant to glutamate-induced death (FIG. 4). This striking finding reinforced our interest to test α-tocotrienol as an inhibitor of glutamate-inducible 12-LOX activity in neuronal cells. Referring to FIG. 5, Products of 12-lipoxygenase activity in glutamate-treated neurons were evaluated using a HPLC-based analytical approach. […] ND, not detectable. It was observed that the by-product of 12-LOX activity, 12(S)-HETE, was not detected in HT4 cells under basal culture conditions (FIG. 5). […] However, such increase was prevented in α-tocotrienol treated cells (FIG. 5). This line of observation led to the question whether over-expression of 12-LOX in HT4 cells would sensitize them to glutamate-induced cytotoxicity and whether α-tocotrienol could counter such toxicity.
12-HETE detection. 12-Hydroxy-eicosatetraenoic acid (HETE) from HT4 cells was detected using a HPLC-UV based method (Eberhard et al., 2000). Immunofluorescence microscopy. For immunofluorescence microscopy, primary cultures of rat cortical neurons were plated on 35 mm plates pre-coated with poly-L-lysine. After 24 h, cell were treated with α-tocotrienol or BL15 for 5 minutes and then challenged with glutamate or exposed to glutamate. […]

[2] = molecular target: T1, Purified 12-lipoxygenase (porcine leukocyte) (Sus scrofa, UniProt P16469); experiment: Pure 12-lipoxygenase activity with [14C]-arachidonic acid (thin layer chromatography); type: biochemical; conditions: 10 units enzyme, [14C]-arachidonic acid 25 μM, 30 min, 37° C.
T1 construct: purchased Biomol Research labs Inc, Plymouth Meeting, Pa
T1 sequence (P16469 1-663): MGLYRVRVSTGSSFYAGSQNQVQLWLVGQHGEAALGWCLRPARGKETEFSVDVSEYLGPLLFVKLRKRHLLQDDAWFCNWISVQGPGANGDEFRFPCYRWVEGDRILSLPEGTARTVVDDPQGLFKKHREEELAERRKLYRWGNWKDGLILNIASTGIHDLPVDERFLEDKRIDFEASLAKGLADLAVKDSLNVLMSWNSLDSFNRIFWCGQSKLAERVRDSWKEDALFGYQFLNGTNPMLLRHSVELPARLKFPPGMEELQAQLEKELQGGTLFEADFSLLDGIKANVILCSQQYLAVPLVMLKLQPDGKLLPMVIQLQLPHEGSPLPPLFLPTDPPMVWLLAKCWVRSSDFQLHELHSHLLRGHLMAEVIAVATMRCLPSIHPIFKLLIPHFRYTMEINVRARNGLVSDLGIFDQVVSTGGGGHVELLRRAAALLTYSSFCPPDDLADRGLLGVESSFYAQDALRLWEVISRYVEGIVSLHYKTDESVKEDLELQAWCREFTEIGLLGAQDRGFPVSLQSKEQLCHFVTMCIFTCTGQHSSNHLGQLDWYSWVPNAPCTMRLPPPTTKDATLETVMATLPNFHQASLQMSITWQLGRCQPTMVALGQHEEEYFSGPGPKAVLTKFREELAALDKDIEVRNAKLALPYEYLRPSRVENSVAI
Procedure: Referring to FIG. 6, HT4 cells were subjected to glutamate treatment for 2 h. […] Purified 12-lipoxygenase (porcine leukocyte; 10 units) was incubated with [^14C]-arachidonic acid (25 μM) for 30 min at 37° C. Arachidonic acid and 12-HETE were resolved using thin layer chromatography as described in Materials & Methods We observed that in HT4 cells, treatment with glutamate mobilized cytosolic 12-LOX protein to the cell membrane (FIGS. 6A&B).
12-Lipoxygenase activity. To investigate whether tocotrienol directly affect the activity of 12-LOX (12-LOX), 10 units of 12-LOX (Biomol Research labs Inc, Plymouth Meeting, Pa.) was incubated at room temperature for 15 min with or without tocotrienol as indicated in the respective figure legend. The reaction mixture contained 50 mM Tris HCl, pH 7.4 and 1 mM EDTA. After 15 min, the reaction was initiated by adding 25 μM [1-^14C]-arachidonic acid per sample. Samples were kept at 37° C. for 30 minutes. The reaction was terminated by adding 200 μl of ice-cold stop solution containing diethyl ether, methanol and 1 M citric acid at a ratio of 30:4:1 by volume. After mixing, samples were centrifuged and the ethereal extracts were spotted on a silica gel thin layer plate. […] Distribution of radioactivity of the substrate and products on the plate were quantified using a imaging analyzer.

## CC(C)=CCC/C(C)=C/CC/C(C)=C/CC[C@]1(C)CCc2c(C)c(O)c(C)c(C)c2O1 [α-tocotrienol]
[1]
  glutamate-induced increase of cellular 12(S)-HETE content: prevented
[2]
  inhibition of pure 12-lipoxygenase activity: dose-dependently inhibited
